One data set can be described thus: Dissolution of Goethite. The note with it: 0.5M solution, 100 mg Goethite, 80° C., four hours. An excerpt:
One difficulty, is to ensure contact with ions "embedded" in the surface to be decontaminated. This usually requires destruction or dissolution of a surface oxide layer when the surface is metal. […] This oxide of iron is considered one of the more difficult to penetrate.

Data set [1] is described as follows: Autodecomposition / storage stability at room or ambient temperature. The class given is physicochemical.
The format of data set [2] is physicochemical. The note with it: for resistance to degradation: mild thermal and/or oxidation conditions. As to the method:
(§1) In addition, compounds were screened for their ability to readily decompose. Thermal degradation of the thermodynamically-unstable complexing agents was performed by heating the complexing agent in 8M HNO3 at 100° C. The thermal degradation of the compounds were followed by analysis via ^1 H, ^13 C and ^31 P NMR (nuclear magnetic resonance) spectroscopy. Furthermore, the water-solubility of metal ion complexes formed with the inventive complexing agents was determined by using macroquantities of neodymium (III), i.e., Nd(III); thorium (IV), i.e., Th(IV), and uranium (VI), i.e., U(VI).
As a result, autodecomposition is observed when the thermodynamically-unstable complexing agents of the present invention complex with metal ions such as ruthenium or tungsten.
(§2) After synthesis, the thermodynamically-unstable complexing agents of the present invention were tested for thermal stability and susceptibility to oxidation by using ^1 H, ^13 C and ^31 P NMR spectroscopy. Furthermore, the acid dissociation constants, i.e., the pKa values, of the thermodynamically-unstable complexing agents were determined by standard potentiometric titration methods. Finally, the thermodynamically-unstable diphosphonic acid complexing agents of the present invention were analyzed with respect to their ability to complex metal ions and with respect to the aqueous solubility of the resulting metal ion complexes. In addition, the solubility of the uncomplexed thermodynamically-unstable complexing agents was determined by using macro-concentrations of neodymium(III) as a substitute for the trivalent actinides; of thorium(IV), as a substitute for plutonium(IV) and neptunium(IV); of uranyl(VI), as representative for all actinide(VI) ions; of iron(III); and of zirconium. The variables included in this solubility determination were the thermally-unstable complexing agent-to-metal ion ratio, the metal ion concentration, and the pH.
More particularly, ^1 H, ^13 C, and ^31 P NMR spectroscopy was used to elucidate and measure the thermal degradation pathways of the thermally-unstable complexing agents of structural formula I, and to evaluate synthesis efforts. For example, ^31 P NMR spectroscopy is especially valuable in identifying the type of phosphorus compound that is synthesized or the type of phosphorous compound produced upon degradation of the thermally-unstable complexing agent. As a result, ^31 P NMR spectroscopy provides a method of showing that a particular diphosphonic acid compound actually was synthesized.

Data set [3] can be described thus: Acid dissociation constants by potentiometric (pH) titration. Particulars: for pK1 / pK2 / pK3 / pK4: ionic strength 2 M (NaNO3). The data set is classed as physicochemical. Here is the method: as §2
In addition, the thermodynamics of protonation of the thermodynamically-unstable complexing agents of the present invention was investigated by potentiometric (pH) titration.
The acidity constants of the thermodynamically-unstable complexing agents are important in the interpretation of metal ion complexation studies, and also serve as a preliminary indicator of metal ion complex stability and conformation. TABLE III summarizes the acid dissocation constants (pKa) of three substituted diphosphonic acids of the present invention. The acid dissociation constants of oxalic and phosphoric acids are included for comparison.
Metal ion complexation with the thermodynamically-unstable complexing agent was investigated using the solvent extraction distribution ratio method. The medium used in all of the protonation and complexation studies was 2.0M NaNO3 /HNO3. The relatively high ionic strength of this medium was utilized in order to minimize interferences due to activity coefficient changes. Data interpretation in all experiments was accomplished by the application of a generic least-squares program written in BASIC. The program applies a Newton-Raphson type iterative process to the data and minimizes the sum of squares of the residuals. The generic program was adapted to several different forms to fit distribution ratio lowering (Do/D) vs. free ligand concentration measurements, and p (average proton number) data from potentiometric titrations.

Data set [4] in a line: Removal of uranium from groundwater, supported liquid membrane-based process. The note with it: 60° to 70° C. overnight, strip solution with uranium. The text has this:
Aqueous solutions of the thermodynamically-unstable complexing agents of the present invention can be used in commercially available supported liquid membrane-based modules to strip metal ion contaminants from aqueous solution. Other devices using a porous membrane separating means can also be used. In general the aqueous solution containing uranium is in contact with one side of the porous membrane and the aqueous solution of the complexing agent is in contact with the other. A known organic extractant is permeated into the pores of the membrane to carry the metal ions from one side to the other. The aqueous solution of the complexing agent strips metal ions from the organic extractant in the pores, driving the extraction "reaction" toward removal of metal ions from the solution to be decontaminated.
Aqueous solutions of the thermodynamically-unstable complexing agent described in this application are useful as stripping agents in a supported liquid membrane-based process for removal of uranium contaminants from groundwater. In this process, groundwater containing 10^-4 M uranium is acidified to pH of 2 by addition of small amounts of sulfuric acid and passed through porous polypropylene hollow fibers in a supported liquid membrane module. The pores of the membrane are filled with 0.1M bis(2,4,4-trimethylpentyl)phosphinic acid in n-dodecane. […]

A short description of data set [5]: Aqueous solubility of metal ion complexes. The data set is classed as physicochemical. Here is the method: as §1, §2
The conditions of data set [6]: 1 M ionic strength, included for comparison; cited from earlier work.

Each structure is given as a SMILES string. Counter-ions that a name gives are not always drawn. Like-named read-outs stand apart in the source and are kept apart here.

`C=C(P(=O)(O)O)P(=O)(O)O` [VDPA, vinylidenediphosphonic acid]: the Goethite dissolved in the data set “Dissolution of Goethite” stood at 40%. Moreover, the stability entry in data set [1] (free acid form) was “stable”. In data set [1] (sodium (tetrasodium) salt form), the stability entry was “stable”. Besides, the decomposition entry in data set [2] (aqueous hydrogen peroxide, moderately elevated temperatures) was “decomposes within hours”. In addition, the decomposition result in data set [2] (boiling nitric acid) is on record as “decomposes within hours”. Also, the “decomposition by metal catalyzed oxidation” value in data set [2] (hydrogen peroxide, metal catalyzed) is on record as “readily decomposed”. For the same compound, the “decomposition after complexing with a metal ion” value in data set [2] (salts of vanadium(V)) is on record as “can be decomposed by salts of vanadium(V) under very mild conditions”. In data set [3], this compound gave a pK1 of 1.41, a pK2 of 2.05, a pK3 of 5.98 and a pK4 of 8.58. Moreover, the “time of destruction by heating” value in data set [4] is given as “about 5 hours”. For the same compound, the “solubility of metal ion complexes” value in data set [5] (acidic media) is given as “very soluble”.

Take `O=P(O)(O)C(O)(CO)P(=O)(O)O` [DHEDPA, 1,2-dihydroxyethane-1,1-diphosphonic acid]: the products of autodecomposition result in data set [1] (free acid form) is “water, carbon dioxide and phosphoric acid”. For the same compound, the “conversion on previous attempts to isolate free acid” value in data set [1] (free acid form, as taught by prior art patent references) is “essentially immediate conversion”. Also, the half-life of autodecomposition entry in data set [1] (free acid form, room / ambient temperature) was “about 15 days”. In addition, in data set [1] (free acid form, listed as compound X), the products of autodecomposition entry is “phosphorous and phosphoric acids”. In data set [1] (sodium (tetrasodium) salt form, listed as 1,2-dihydroxyethane-1,1-diphosphonic acid), the stability result is reported as “stable indefinitely”. Moreover, the “time to total decomposition” value in data set [2] (free acid form, boiling 8M HNO3) is given as “about 3 hours”. Further, the decomposition entry in data set [2] (free acid form, hydrogen peroxide at about 60° C.) is on record as “totally decomposes”. Moreover, the “acid strength (in words)” value in data set [3] (TABLE III comparison) is given as “strongest acid”. In data set [3], the pK1 came out at 0.91, the pK2 turned out to be 1.59, the pK3 stood at 5.82 and the pK4 came out at 7.97.

With `O=C(O)CC(=O)O` [malonic acid, reference compound], the Goethite dissolved in the data set “Dissolution of Goethite” was 8%.

Consider `CC(O)(P(=O)(O)O)P(=O)(O)O` [HEDPA, 1-hydroxyethane-1,1-diphosphonic acid, reference compound], for which the resistance to degradation entry in data set [2] is on record as “ability to resist decomposition”. In addition, in data set [2] (listed as compound VIII), the resistance to degradation entry was “resisted degradation under mild thermal and/or oxidation conditions”. In data set [3], this compound returned a pK1 of 1.53, a pK2 of 2.16, a pK3 of 6.18 and a pK4 of 9.09. Further, in data set [5] (acid media), the “aqueous solubility of neodymium (III) complexes” value is “only moderate aqueous solubilities” and the “aqueous solubility of thorium (IV) complexes” value was “only moderate aqueous solubilities”.

Take `O=C(O)C(O)(P(=O)(O)O)P(=O)(O)O` [compound VII, carboxyhydroxymethanediphosphonic acid]: in data set [1] (free acid form), the products of autodecomposition result was “carbon dioxide, water and phosphoric acid”. Moreover, the “half-life of autodecomposition (in words)” value in data set [1] (free acid form, room temperature) was “from about two days to about three days”.

On to `O=C(O)C(=O)O` [Oxalic Acid, oxalic acid], for which the pK2 in data set [6] is 3.55.

As for `O=P(O)(O)C(O)(CO)P(=O)(O)O` [tetrasodium salt of compound X], in data set [1] (sodium (tetrasodium) salt form), the stability result is “stable indefinitely at room temperature”.
